Reference: ChEMBL document CHEMBL5154753, “Discovery and Structural Optimization of Toddacoumalone Derivatives as Novel PDE4 Inhibitors for the Topical Treatment of Psoriasis” (J Med Chem, 2022)
Calls of active or inactive are those of the source. No cut-off for these calls is given here.

Columns and labels:
[1] = target: cGMP-specific 3',5'-cyclic phosphodiesterase (Homo sapiens, UniProt O76074); assay: Inhibition of PDE5A1 (535 to 860 residues) (unknown origin) expressed in Escherichia coli BL21 using [3H-GMP] or [3H-AMP] as substrate incubated for 15 mins by liquid scintillation counting method
[2] = Stability in human liver microsomes assessed as half life measure upto 45 mins in presence of NADPH by LC-MS analysis; assay type: ADME, Microsome
[3] = target: Dual specificity calcium/calmodulin-dependent 3',5'-cyclic nucleotide phosphodiesterase 1B (Homo sapiens, UniProt Q01064); assay: Inhibition of PDE1B (10 to 487 residues) (unknown origin) expressed in Escherichia coli BL21 using [3H-GMP] or [3H-AMP] as substrate incubated for 15 mins by liquid scintillation counting method
Dual specificity calcium/calmodulin-dependent 3',5'-cyclic nucleotide phosphodiesterase 1B, sequence (Q01064 whole entry, the tested form may be a part): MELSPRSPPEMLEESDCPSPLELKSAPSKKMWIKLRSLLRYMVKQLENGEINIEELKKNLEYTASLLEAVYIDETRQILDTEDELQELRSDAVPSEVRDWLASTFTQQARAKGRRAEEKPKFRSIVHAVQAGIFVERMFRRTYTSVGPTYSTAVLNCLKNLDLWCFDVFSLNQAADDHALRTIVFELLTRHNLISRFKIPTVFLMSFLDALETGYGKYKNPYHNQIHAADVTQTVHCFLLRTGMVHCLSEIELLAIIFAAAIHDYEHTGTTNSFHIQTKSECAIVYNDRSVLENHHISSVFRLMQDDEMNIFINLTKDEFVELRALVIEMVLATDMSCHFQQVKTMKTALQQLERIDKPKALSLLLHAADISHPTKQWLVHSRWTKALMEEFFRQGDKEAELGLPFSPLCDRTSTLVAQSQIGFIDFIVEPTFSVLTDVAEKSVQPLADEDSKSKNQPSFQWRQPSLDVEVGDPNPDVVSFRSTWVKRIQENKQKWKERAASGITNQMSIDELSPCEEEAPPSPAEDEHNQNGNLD

[4] = target: cGMP-inhibited 3',5'-cyclic phosphodiesterase 3A (Homo sapiens, UniProt Q14432); assay: Inhibition of PDE3A (679 to 1087 residues) (unknown origin) expressed in Escherichia coli BL21 using [3H-GMP] or [3H-AMP] as substrate incubated for 15 mins by liquid scintillation counting method
cGMP-inhibited 3',5'-cyclic phosphodiesterase 3A, sequence (Q14432 whole entry, the tested form may be a part): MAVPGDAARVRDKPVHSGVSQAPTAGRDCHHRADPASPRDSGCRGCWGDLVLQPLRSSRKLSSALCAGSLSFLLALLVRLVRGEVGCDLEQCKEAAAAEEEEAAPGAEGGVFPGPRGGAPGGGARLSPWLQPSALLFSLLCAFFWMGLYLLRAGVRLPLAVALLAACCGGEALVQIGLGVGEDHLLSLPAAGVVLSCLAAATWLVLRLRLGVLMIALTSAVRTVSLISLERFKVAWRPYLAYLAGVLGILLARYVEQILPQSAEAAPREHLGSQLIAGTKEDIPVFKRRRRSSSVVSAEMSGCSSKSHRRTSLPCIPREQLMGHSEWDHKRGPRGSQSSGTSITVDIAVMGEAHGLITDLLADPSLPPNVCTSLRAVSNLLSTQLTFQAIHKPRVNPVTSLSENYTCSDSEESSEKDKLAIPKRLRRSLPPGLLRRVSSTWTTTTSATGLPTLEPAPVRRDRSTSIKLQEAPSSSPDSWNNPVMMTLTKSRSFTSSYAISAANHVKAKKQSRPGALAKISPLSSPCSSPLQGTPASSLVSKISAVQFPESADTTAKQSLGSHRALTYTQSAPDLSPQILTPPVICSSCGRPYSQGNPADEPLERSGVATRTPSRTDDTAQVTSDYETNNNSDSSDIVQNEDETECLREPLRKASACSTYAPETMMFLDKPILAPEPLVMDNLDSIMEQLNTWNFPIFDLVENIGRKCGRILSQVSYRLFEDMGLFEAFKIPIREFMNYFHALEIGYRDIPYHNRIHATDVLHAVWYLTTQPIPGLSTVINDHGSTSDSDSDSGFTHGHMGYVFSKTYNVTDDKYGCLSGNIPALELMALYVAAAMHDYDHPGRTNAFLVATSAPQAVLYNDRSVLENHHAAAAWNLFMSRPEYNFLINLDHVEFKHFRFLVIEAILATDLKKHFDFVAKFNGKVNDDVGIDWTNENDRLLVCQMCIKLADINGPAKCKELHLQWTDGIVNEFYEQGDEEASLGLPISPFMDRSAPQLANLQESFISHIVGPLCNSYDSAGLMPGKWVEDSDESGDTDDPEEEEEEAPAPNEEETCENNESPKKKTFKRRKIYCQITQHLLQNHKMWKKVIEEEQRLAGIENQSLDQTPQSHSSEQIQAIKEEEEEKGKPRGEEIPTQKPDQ

[5] = target: High affinity cAMP-specific and IBMX-insensitive 3',5'-cyclic phosphodiesterase 8A (Homo sapiens, UniProt O60658); assay: Inhibition of PDE8A1 (480 to 820 residues) (unknown origin) expressed in Escherichia coli BL21 using [3H-GMP] or [3H-AMP] as substrate incubated for 15 mins by liquid scintillation counting method
High affinity cAMP-specific and IBMX-insensitive 3',5'-cyclic phosphodiesterase 8A, sequence (O60658 whole entry, the tested form may be a part): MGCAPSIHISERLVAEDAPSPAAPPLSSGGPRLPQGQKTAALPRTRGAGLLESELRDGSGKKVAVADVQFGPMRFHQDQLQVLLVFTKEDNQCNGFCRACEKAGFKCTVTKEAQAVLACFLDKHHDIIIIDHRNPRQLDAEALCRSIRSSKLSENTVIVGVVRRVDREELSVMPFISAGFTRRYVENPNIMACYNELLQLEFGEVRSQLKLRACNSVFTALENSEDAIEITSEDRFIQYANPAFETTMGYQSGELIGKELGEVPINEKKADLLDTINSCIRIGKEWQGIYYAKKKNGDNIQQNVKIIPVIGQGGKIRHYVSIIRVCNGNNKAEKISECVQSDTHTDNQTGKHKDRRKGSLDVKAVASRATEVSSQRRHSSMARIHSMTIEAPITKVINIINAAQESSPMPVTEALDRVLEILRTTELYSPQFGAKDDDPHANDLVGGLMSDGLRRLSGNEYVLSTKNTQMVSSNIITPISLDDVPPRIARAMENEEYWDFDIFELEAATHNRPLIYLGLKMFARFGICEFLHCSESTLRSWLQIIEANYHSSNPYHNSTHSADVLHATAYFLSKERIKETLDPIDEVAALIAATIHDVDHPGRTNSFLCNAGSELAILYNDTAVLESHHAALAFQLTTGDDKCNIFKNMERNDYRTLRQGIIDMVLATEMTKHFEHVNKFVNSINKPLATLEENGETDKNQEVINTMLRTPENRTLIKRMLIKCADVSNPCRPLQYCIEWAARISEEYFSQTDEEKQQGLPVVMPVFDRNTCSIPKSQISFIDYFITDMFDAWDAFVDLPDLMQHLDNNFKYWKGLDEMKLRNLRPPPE

[6] = target: High affinity cGMP-specific 3',5'-cyclic phosphodiesterase 9A (Homo sapiens, UniProt O76083); assay: Inhibition of PDE9A2 (181 to 506 residues) (unknown origin) expressed in Escherichia coli BL21 using [3H-GMP] or [3H-AMP] as substrate incubated for 15 mins by liquid scintillation counting method
High affinity cGMP-specific 3',5'-cyclic phosphodiesterase 9A, sequence (O76083 whole entry, the tested form may be a part): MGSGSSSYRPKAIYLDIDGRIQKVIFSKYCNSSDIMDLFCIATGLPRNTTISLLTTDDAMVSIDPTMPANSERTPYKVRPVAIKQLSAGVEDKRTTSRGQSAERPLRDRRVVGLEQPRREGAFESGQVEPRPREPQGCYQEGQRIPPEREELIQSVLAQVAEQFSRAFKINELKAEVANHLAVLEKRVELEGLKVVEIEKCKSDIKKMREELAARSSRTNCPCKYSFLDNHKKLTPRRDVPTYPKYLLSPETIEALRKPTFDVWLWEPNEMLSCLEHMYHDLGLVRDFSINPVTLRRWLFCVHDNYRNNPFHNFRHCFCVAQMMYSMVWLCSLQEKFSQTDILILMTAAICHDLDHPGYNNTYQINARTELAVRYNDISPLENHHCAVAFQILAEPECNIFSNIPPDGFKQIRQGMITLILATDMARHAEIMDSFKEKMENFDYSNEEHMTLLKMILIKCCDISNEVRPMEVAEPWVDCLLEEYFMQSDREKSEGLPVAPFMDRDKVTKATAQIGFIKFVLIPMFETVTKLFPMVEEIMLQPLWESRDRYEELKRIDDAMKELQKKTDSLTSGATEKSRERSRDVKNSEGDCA

[7] = target: Voltage-gated inwardly rectifying potassium channel KCNH2 (Homo sapiens, UniProt Q12809); assay: Inhibition of hERG by Q patch automated patch-clamp method; assay type: toxicity
Voltage-gated inwardly rectifying potassium channel KCNH2, sequence (Q12809 whole entry): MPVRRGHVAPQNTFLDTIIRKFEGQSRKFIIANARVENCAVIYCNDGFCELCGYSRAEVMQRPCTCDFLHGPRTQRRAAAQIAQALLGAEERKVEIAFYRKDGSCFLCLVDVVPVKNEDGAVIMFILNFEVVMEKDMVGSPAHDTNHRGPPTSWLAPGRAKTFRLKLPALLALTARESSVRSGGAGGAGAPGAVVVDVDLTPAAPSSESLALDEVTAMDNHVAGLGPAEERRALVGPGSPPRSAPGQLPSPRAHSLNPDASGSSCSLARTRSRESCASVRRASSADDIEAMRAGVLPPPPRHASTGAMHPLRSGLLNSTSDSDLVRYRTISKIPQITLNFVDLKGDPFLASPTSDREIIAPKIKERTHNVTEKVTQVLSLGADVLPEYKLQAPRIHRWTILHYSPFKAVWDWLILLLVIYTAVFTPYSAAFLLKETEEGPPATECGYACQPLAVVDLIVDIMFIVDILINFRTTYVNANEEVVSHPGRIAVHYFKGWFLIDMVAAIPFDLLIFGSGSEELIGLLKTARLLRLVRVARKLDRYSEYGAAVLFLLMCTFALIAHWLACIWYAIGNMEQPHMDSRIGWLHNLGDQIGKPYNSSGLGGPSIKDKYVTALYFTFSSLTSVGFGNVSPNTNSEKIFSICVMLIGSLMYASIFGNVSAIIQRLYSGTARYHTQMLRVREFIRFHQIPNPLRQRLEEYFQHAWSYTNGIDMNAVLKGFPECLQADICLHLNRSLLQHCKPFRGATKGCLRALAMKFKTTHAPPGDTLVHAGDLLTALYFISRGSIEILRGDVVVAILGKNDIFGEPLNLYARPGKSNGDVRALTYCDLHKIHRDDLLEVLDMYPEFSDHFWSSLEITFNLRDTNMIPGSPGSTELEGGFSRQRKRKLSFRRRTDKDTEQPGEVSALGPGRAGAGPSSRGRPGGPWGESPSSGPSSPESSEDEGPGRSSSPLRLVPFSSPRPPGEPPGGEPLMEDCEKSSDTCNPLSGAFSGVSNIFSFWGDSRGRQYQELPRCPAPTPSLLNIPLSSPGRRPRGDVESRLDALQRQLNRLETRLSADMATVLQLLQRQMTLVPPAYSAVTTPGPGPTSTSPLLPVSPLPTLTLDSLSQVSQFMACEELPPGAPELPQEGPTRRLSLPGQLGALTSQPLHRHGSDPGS

[8] = Stability in rat liver microsomes assessed as half life measure upto 45 mins in presence of NADPH by LC-MS analysis; assay type: ADME, Microsome
[9] = Stability in mouse liver microsomes assessed as half life measure upto 45 mins in presence of NADPH by LC-MS analysis; assay type: ADME, Microsome
[10] = AUC (0 to infinity) in ICR mouse at 10 mg/kg, iv measured upto 24 hrs by LC-MS/MS analysis; assay type: ADME, organism-based; set-up: time < 24 hrs, dose 10 mg/kg, route iv; details: in vivo
[11] = C0 in ICR mouse at 10 mg/kg, iv measured upto 24 hrs by LC-MS/MS analysis; assay type: ADME, organism-based; details: in vivo
[12] = Volume of distribution at steady state in ICR mouse at 10 mg/kg, iv measured upto 24 hrs by LC-MS/MS analysis; assay type: ADME, organism-based; details: in vivo, read-out: Vdss
[13] = AUC (0 to t) in ICR mouse at 30 mg/kg, po measured upto 24 hrs by LC-MS/MS analysis; assay type: ADME, organism-based; set-up: time < 24 hrs, dose 30 mg/kg, route po; details: in vivo
[14] = AUC (0 to infinity) in ICR mouse at 30 mg/kg, po measured upto 24 hrs by LC-MS/MS analysis; assay type: ADME, organism-based; set-up: dose 30 mg/kg, time < 24 hrs, route po; details: in vivo
[15] = Cmax in ICR mouse at 30 mg/kg, po measured upto 24 hrs by LC-MS/MS analysis; assay type: ADME, organism-based; set-up: time < 24 hrs, dose 30 mg/kg, route po; details: in vivo
[16] = Half life in ICR mouse at 30 mg/kg, po measured upto 24 hrs by LC-MS/MS analysis; assay type: ADME, organism-based; details: in vivo
[17] = Oral bioavailability in ICR mouse at 30 mg/kg measured upto 24 hrs by LC-MS/MS analysis; assay type: ADME, organism-based; details: in vivo
RAW264.7 [18] = assay: Anti-inflammatory activity against mouse RAW264.7 cells assessed as decrease in LPS-induced TNF-alpha mRNA levels incubated for 4 hrs followed LPS-stimulation for 24 hrs by SYBR green staining based qRT-PCR analysis; assay type: functional, cell-based; details: time 28.0 hrs, DDE = dose-dependent effect
RAW264.7 [19] = assay: Anti-inflammatory activity against mouse RAW264.7 cells assessed as decrease in LPS-induced IL-6 mRNA levels incubated for 4 hrs followed LPS-stimulation for 24 hrs by SYBR green staining based qRT-PCR analysis; assay type: functional, cell-based; details: time 28.0 hrs, DDE = dose-dependent effect
Mus musculus [20] = assay: Anti-psoriatic activity in IMQ-induced BALB/c psoriasis mouse model assessed as reduction in scales score at 10 mg/kg, po for 7 days; assay type: functional, organism-based; details: time 7.0 day
Mus musculus [21] = assay: Anti-psoriatic activity in IMQ-induced BALB/c psoriasis mouse model assessed as reduction in thickness score at 10 mg/kg, po for 7 days; assay type: functional, organism-based; details: time 7.0 day
Mus musculus [22] = assay: Anti-psoriatic activity in IMQ-induced BALB/c psoriasis mouse model assessed as reduction in total clinical score at 10 mg/kg, po for 7 days; assay type: functional, organism-based; details: time 7.0 day
[23] = Toxicity in IMQ-induced BALB/c psoriasis mouse model assessed as body weight loss at 10 mg/kg, po for 7 days; assay type: organism-based; details: in vivo, 168 h, time 7 day
Mus musculus [24] = assay: Anti-psoriatic activity in IMQ-induced BALB/c psoriasis mouse model assessed as reduction IMQ- induced immune response by measuring change in spleen weight at 10 mg/kg, po for 7 days; assay type: functional, organism-based; details: time 7.0 day
Mus musculus [25] = organism: Mus musculus; assay: Anti-psoriatic activity in IMQ-induced BALB/c psoriasis mouse model assessed as reduction in scales score at 62.5 mg as 2% ointment, TOP daily and measured upto 7 days; assay type: functional, organism-based; details: time <= 7.0 day, DDE = dose-dependent effect
[26] = Toxicity in IMQ-induced BALB/c psoriasis mouse model assessed as body weight loss at 62.5 mg as 2% ointment, TOP daily and measured upto 7 days; details: in vivo, topical_or_ocular, 168 h, time < 7 day
[27] = Toxicity in BALB/c mouse assessed as skin lesions at 62.5 mg as 2% ointment, TOP daily and measured upto 7 days; details: in vivo, topical_or_ocular, 168 h, time < 7 day
[28] = Toxicity in BALB/c mouse assessed as body weight loss at 62.5 mg as 2% ointment, TOP daily and measured upto 7 days; details: in vivo, topical_or_ocular, 168 h, time < 7 day
Mus musculus [29] = organism: Mus musculus; assay: Anti-psoriatic activity in IMQ-induced BALB/c psoriasis mouse model assessed as reduction in scales score at 62.5 mg as 4% ointment, TOP daily and measured upto 7 days; assay type: functional, organism-based; details: time <= 7.0 day, DDE = dose-dependent effect
Mus musculus [30] = organism: Mus musculus; assay: Anti-psoriatic activity in IMQ-induced BALB/c psoriasis mouse model assessed as reduction in thickness score at 62.5 mg as 4% ointment, TOP daily and measured upto 7 days; assay type: functional, organism-based; details: time <= 7.0 day, DDE = dose-dependent effect
[31] = Toxicity in IMQ-induced BALB/c psoriasis mouse model assessed as body weight loss at 62.5 mg as 4% ointment, TOP daily and measured upto 7 days; details: in vivo, topical_or_ocular, 168 h, time < 7 day
[32] = Toxicity in BALB/c mouse assessed as skin lesions at 62.5 mg as 4% ointment, TOP daily and measured upto 7 days; details: in vivo, topical_or_ocular, 168 h, time < 7 day
[33] = Toxicity in BALB/c mouse assessed as body weight loss at 62.5 mg as 4% ointment, TOP daily and measured upto 7 days; details: in vivo, topical_or_ocular, 168 h, time < 7 day
Mus musculus [34] = organism: Mus musculus; assay: Anti-psoriatic activity in IMQ-induced BALB/c psoriasis mouse model assessed as change in skin thickness at 62.5 mg as 4% ointment, TOP daily for 7 days by hematoxylin and eosin staining based confocal laser scanning microscopy; assay type: functional, organism-based; details: time 7.0 day
Mus musculus [35] = organism: Mus musculus; assay: Anti-psoriatic activity in IMQ-induced BALB/c psoriasis mouse model assessed as reduction in dermal cell proliferation at 62.5 mg as 4% ointment, TOP daily for 7 days by Ki67+ expression based immunohistochemistry analysis; assay type: functional, organism-based; details: time 7.0 day

**Q.** With `CCn1c(=O)c2c(c3ccc(C)nc31)O[C@@](C)(CCO)C[C@H]2C=C(C)C` as the molecule, how does the IC50 [1] read?
**A.** 4.25 µM

**Q.** What about the half-life [2] of the same molecule?
**A.** 0.9 min

**Q.** And the IC50 [3]?
**A.** > 10 µM

**Q.** What about the IC50 [4] of the same molecule?
**A.** > 10 µM

**Q.** And the IC50 [5]?
**A.** 0.82 µM

**Q.** What about the IC50 [6] of the same molecule?
**A.** > 10 µM

**Q.** What about the IC50 [7] of the same molecule?
**A.** > 50 µM

**Q.** What about the half-life [8] of the same molecule?
**A.** 2.9 min

**Q.** And the half-life [9]?
**A.** 1.3 min

**Q.** What about the AUC(0-inf) [10] of the same molecule?
**A.** 2.62 µg·h/mL

**Q.** What about the C0 at 24 h [11] of the same molecule?
**A.** 20.6 µg/mL

**Q.** And the Vd [12]?
**A.** 0.77 L/kg

**Q.** And the AUC(0-t) at 24 h [13]?
**A.** 1.13 µg·h/mL

**Q.** And the AUC(0-inf) [14]?
**A.** 1.2 µg·h/mL

**Q.** And the Cmax [15]?
**A.** 0.391 µg/mL

**Q.** What about the half-life [16] of the same molecule?
**A.** 109 min

**Q.** What about the bioavailability [17] of the same molecule?
**A.** 14.4%

**Q.** What about the Activity (RAW264.7 [18]) of the same molecule?
**A.** Dde

**Q.** What about the Activity (RAW264.7 [19]) of the same molecule?
**A.** Dde

**Q.** And the Activity (Mus musculus [20])?
**A.** Active

**Q.** And the Activity (Mus musculus [21])?
**A.** Active

**Q.** What about the Activity (Mus musculus [22]) of the same molecule?
**A.** Active

**Q.** And the Activity [23]?
**A.** Non-Toxic

**Q.** What about the Activity (Mus musculus [24]) of the same molecule?
**A.** Active

**Q.** What about the Activity (Mus musculus [25]) of the same molecule?
**A.** Dde

**Q.** And the Activity [26]?
**A.** Non-Toxic

**Q.** What about the Activity [27] of the same molecule?
**A.** Non-Toxic

**Q.** And the Activity [28]?
**A.** Non-Toxic

**Q.** And the Activity (Mus musculus [29])?
**A.** Dde

**Q.** And the Activity (Mus musculus [30])?
**A.** Dde

**Q.** And the Activity [31]?
**A.** Non-Toxic

**Q.** And the Activity [32]?
**A.** Non-Toxic

**Q.** What about the Activity [33] of the same molecule?
**A.** Non-Toxic

**Q.** What about the Activity (Mus musculus [34]) of the same molecule?
**A.** Active

**Q.** And the Activity (Mus musculus [35])?
**A.** Active
